These results are taken from the supplement of paper PMC12137928.

Structures can show the parent of a compound that is named as a salt.

For this assay, the system named is HCT116. Particulars: 72 h. The method in brief: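 Luminescence was read with CellTiter-Glo in HCT116 cells seeded at 250 per well in 1536-well plates. Signals were scaled between vehicle at 0% and positive control at -100%, then pattern-corrected. IC50 and maximal efficacy were obtained by fitting a four-parameter Hill equation.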

For `N=C(N)NCCCCCCC(=O)NC(O)C(=O)NCCCCNCCCN` (centres undefined) [Gusperimus trihydrochloride], the IC50 cell viability by setting is: (ICRF193 0 nM) more than 45.8 µM; (ICRF193 200 nM) more than 45.8 µM.
Regarding `CCCCCCCCCC(=O)OC1(c2ccc(Cl)cc2)CCN(CCCC(=O)c2ccc(F)cc2)CC1` [HALOPERIDOL DECANOATE], the IC50 cell viability is more than 45.8 µM (ICRF193 0 nM) and more than 45.8 µM (ICRF193 200 nM).
`FC(F)(F)C(Cl)Br` (centres undefined) [HALOTHANE]: the IC50 cell viability is, setting by setting: (ICRF193 0 nM) more than 45.8 µM; (ICRF193 200 nM) more than 45.8 µM.
Consider `CC1(C)S[C@@H]2[C@H](N3C(=O)[C@@H](c4ccccc4)NC3(C)C)C(=O)N2[C@H]1C(=O)O` [HETACILLIN POTASSIUM], for which the IC50 cell viability by setting is: (ICRF193 0 nM) more than 45.8 µM; (ICRF193 200 nM) more than 45.8 µM.
Consider `C[N+]1(C)[C@@H]2CC[C@H]1C[C@@H](OC(=O)C(O)c1ccccc1)C2` (some centres undefined) [HOMATROPINE METHYLBROMIDE], for which the IC50 cell viability is, setting by setting: (ICRF193 0 nM) more than 45.8 µM; (ICRF193 200 nM) more than 45.8 µM.
With `CCC(=O)O[C@]1(C(=O)COC(C)=O)CC[C@H]2[C@@H]3CCC4=CC(=O)CC[C@]4(C)[C@H]3[C@@H](O)C[C@@]21C` [HYDROCORTISONE ACEPONATE], the IC50 cell viability was more than 45.8 µM (ICRF193 0 nM) and more than 45.8 µM (ICRF193 200 nM).
`CC(N)Cc1ccc(O)cc1` (centres undefined) [HYDROXYAMPHETAMINE HYDROBROMIDE]: the IC50 cell viability runs as follows: (ICRF193 0 nM) more than 45.8 µM; (ICRF193 200 nM) more than 45.8 µM.
`CN1[C@@H]2CC[C@H]1C[C@@H](OC(=O)[C@H](CO)c1ccccc1)C2` [HYOSCYAMINE]: the IC50 cell viability (ICRF193 0 nM) was more than 45.8 µM and the IC50 cell viability (ICRF193 200 nM) was more than 45.8 µM.
For `CC1(C)O[C@@H]2C[C@H]3[C@@H]4CCC5=CC(=O)CC[C@]5(C)[C@@]4(F)[C@@H](O)C[C@]3(C)[C@]2(C(=O)CCl)O1` [Halcinonide], the IC50 cell viability reads like this: (ICRF193 0 nM) more than 45.8 µM; (ICRF193 200 nM) more than 45.8 µM.
On to `CCC(=O)O[C@]1(C(=O)CCl)[C@@H](C)C[C@H]2[C@@H]3C[C@H](F)C4=CC(=O)C=C[C@]4(C)[C@@]3(F)[C@@H](O)C[C@@]21C` [Halobetasol Propionate], for which the IC50 cell viability was more than 45.8 µM (ICRF193 0 nM) and more than 45.8 µM (ICRF193 200 nM).
As for `O=C(CC1NCCCC1O)Cn1cnc2cc(Br)c(Cl)cc2c1=O` (centres undefined) [Halofuginone hydrochloride], the IC50 cell viability is, setting by setting: (ICRF193 0 nM) more than 45.8 µM; (ICRF193 200 nM) more than 45.8 µM.
For the compound `O=C(CCCN1CCC(O)(c2ccc(Cl)cc2)CC1)c1ccc(F)cc1` [Haloperidol], the IC50 cell viability was more than 45.8 µM (ICRF193 0 nM) and more than 45.8 µM (ICRF193 200 nM).
In the case of `Cc1c(Cl)c(=O)oc2cc(OP(=O)(OCCCl)OCCCl)ccc12` [Haloxon], the IC50 cell viability by setting is: (ICRF193 0 nM) more than 45.8 µM; (ICRF193 200 nM) more than 45.8 µM.
Regarding `CCCCCCCCCCCCCCCC(=O)OC(C)C` [Hexadecanoic acid, 1-methylethyl ester], the IC50 cell viability by setting is: (ICRF193 0 nM) more than 45.8 µM; (ICRF193 200 nM) more than 45.8 µM.
In the case of `C[N+](C)(CCCCCC[N+](C)(C)C1c2ccccc2-c2ccccc21)C1c2ccccc2-c2ccccc21` [Hexafluorenium dibromide], the IC50 cell viability (ICRF193 0 nM) is more than 45.8 µM and the IC50 cell viability (ICRF193 200 nM) was more than 45.8 µM.
With `O=C(O)CCCCC(=O)O` [Hexanedioic acid], the IC50 cell viability reads like this: (ICRF193 0 nM) more than 45.8 µM; (ICRF193 200 nM) more than 45.8 µM.
Compound `CCCCC(CC)CN1CN(CC(CC)CCCC)CC(C)(N)C1` (centres undefined) [Hexetidine] returned an IC50 cell viability (ICRF193 0 nM) of more than 45.8 µM and an IC50 cell viability (ICRF193 200 nM) of more than 45.8 µM.
With `CN1C(=O)NC(=O)C(C)(C2=CCCCC2)C1=O` (centres undefined) [Hexobarbital], the IC50 cell viability is, setting by setting: (ICRF193 0 nM) more than 45.8 µM; (ICRF193 200 nM) more than 45.8 µM.
Take `C[N+]1(C)CCN(CC(O)(c2ccccc2)C2CCCCC2)CC1` (centres undefined) [Hexocyclium]: the IC50 cell viability is more than 45.8 µM (ICRF193 0 nM) and more than 45.8 µM (ICRF193 200 nM).
For `Oc1ccc(C(O)CNCCCCCCNCC(O)c2ccc(O)c(O)c2)cc1O` (centres undefined) [Hexoprenaline sulfate], the IC50 cell viability is, setting by setting: (ICRF193 0 nM) more than 45.8 µM; (ICRF193 200 nM) more than 45.8 µM.
`CC(CNC1CCCCC1)OC(=O)c1ccccc1` (centres undefined) [Hexylcaine hydrochloride] showed an IC50 cell viability (ICRF193 0 nM) of more than 45.8 µM and an IC50 cell viability (ICRF193 200 nM) of more than 45.8 µM.
For `O=C(O)CNC(=O)c1ccccc1` [Hippuric acid], the IC50 cell viability reads like this: (ICRF193 0 nM) more than 45.8 µM; (ICRF193 200 nM) more than 45.8 µM.
For the compound `NCCc1c[nH]cn1` [Histamine dihydrochloride], the IC50 cell viability is, setting by setting: (ICRF193 0 nM) more than 45.8 µM; (ICRF193 200 nM) more than 45.8 µM.
Regarding `C/C=C1\[C@H]2C=C(C)C[C@]1(N)c1ccc(=O)[nH]c1C2` [Huperzine A], the IC50 cell viability is, setting by setting: (ICRF193 0 nM) more than 45.8 µM; (ICRF193 200 nM) more than 45.8 µM.
On to `NS(=O)(=O)c1cc2c(cc1Cl)NCNS2(=O)=O` [Hydrochlorothiazide], for which the IC50 cell viability by setting is: (ICRF193 0 nM) more than 45.8 µM; (ICRF193 200 nM) more than 45.8 µM.
Regarding `CCN(CC)CC(=O)OCC(=O)[C@@]1(O)CC[C@H]2[C@@H]3CCC4=CC(=O)CC[C@]4(C)[C@H]3[C@@H](O)C[C@@]21C` [Hydrocortamate], the IC50 cell viability (ICRF193 0 nM) is more than 45.8 µM and the IC50 cell viability (ICRF193 200 nM) was more than 45.8 µM.
On to `CCCC(=O)O[C@]1(C(=O)CO)CC[C@H]2[C@@H]3CCC4=CC(=O)CC[C@]4(C)[C@H]3[C@@H](O)C[C@@]21C` [Hydrocortisone 17-butyrate], for which the IC50 cell viability reads like this: (ICRF193 0 nM) more than 45.8 µM; (ICRF193 200 nM) more than 45.8 µM.
